# Changes are numbered by the printed parent chain. “And” between values parts separate entries of the source, which are not always exact repeats. Equal entries are not always repeated.
# Legend:
# Type in all cases: cell-based
# hTA1 C96S = biological target: T1, hTA1 C96S (Homo sapiens, UniProt Q96RJ0, C96S); experiment: GloSensor cAMP accumulation assay, C96S mutant; settings: log[Compound]
# T1 construct: expressed in transfected cells; host or cells: HEK293T
# T1 sequence (Q96RJ0 1-339 C96S): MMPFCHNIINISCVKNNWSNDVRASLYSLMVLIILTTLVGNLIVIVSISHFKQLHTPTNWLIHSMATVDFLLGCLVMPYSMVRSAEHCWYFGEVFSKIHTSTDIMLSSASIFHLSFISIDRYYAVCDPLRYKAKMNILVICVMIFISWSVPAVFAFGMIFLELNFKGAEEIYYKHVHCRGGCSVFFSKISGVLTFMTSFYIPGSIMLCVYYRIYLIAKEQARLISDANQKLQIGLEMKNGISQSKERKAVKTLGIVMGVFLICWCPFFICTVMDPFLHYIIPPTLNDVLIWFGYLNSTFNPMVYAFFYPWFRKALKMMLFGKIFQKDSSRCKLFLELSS
# hTA1 C88/178S = biological target: T2, hTA1 C88/178S (Homo sapiens, UniProt Q96RJ0, C178S/C88S); experiment: GloSensor cAMP accumulation assay, C88S/C178S double mutant; settings: for Normalized Luminescence Counts (N=2): log[Compound], single replicate values
# T2 construct: expressed in transfected cells; host or cells: HEK293T
# T2 sequence (Q96RJ0 1-339 C88S/C178S): T1 sequence (Q96RJ0 1-339 C96S) with C88S, S96C, C178S
# hTA1 I290N = biological target: T3, hTA1 I290N (Homo sapiens, UniProt Q96RJ0, I290N); experiment: GloSensor cAMP accumulation assay, I290N mutant;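 note: cells transiently co-expressing hTA1 and the GloSensor cAMP biosensor, luminescence read 30 min after compound addition at room temperature, efficacy scaled to the maximal β-PEA response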
# T3 construct: expressed in transfected cells; host or cells: HEK293T
# T3 sequence (Q96RJ0 1-339 I290N): T1 sequence (Q96RJ0 1-339 C96S) with S96C, I290N
# hTA1 F195T = biological target: T4, hTA1 F195T (Homo sapiens, UniProt Q96RJ0, F195T); experiment: GloSensor cAMP accumulation assay, F195T mutant;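 note: cells transiently co-expressing HA-FLAG-tagged hTA1 and the GloSensor cAMP biosensor, luminescence read 30 min after agonist addition at room temperature, concentration-response fitted by nonlinear regression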
# T4 construct: expressed in transfected cells; host or cells: HEK293T
# T4 sequence (Q96RJ0 1-339 F195T): T1 sequence (Q96RJ0 1-339 C96S) with S96C, F195T
# hTA1 T271A = biological target: T5, hTA1 T271A (Homo sapiens, UniProt Q96RJ0, T271A); experiment: GloSensor cAMP accumulation assay, T271A mutant
# T5 construct: expressed in transfected cells; host or cells: HEK293T
# T5 sequence (Q96RJ0 1-339 T271A): T1 sequence (Q96RJ0 1-339 C96S) with S96C, T271A
# [1] = C88S, C178S, each row is one independent experiment, 3 replicates
structure (smiles),measurement,setting,value
Cc1c(F)cccc1[C@H]1COC(N)=N1 [Ro5263397],Normalized Luminescence Counts,"hTA1 C96S; C96S, M = -5, single replicates (N=2)",9.313 (2×) and 10.6308 and 10.8582 and 5.048 and -2.698
same,Normalized Luminescence Counts,"hTA1 C96S; C96S, M = -5.522, single replicates (N=2)",2.723 and 6.018 and 1.4045 and 10.8582 and 101.879 and 20.5413
same,Normalized Luminescence Counts,"hTA1 C96S; C96S, M = -6, single replicates (N=2)",1.4045 (2×) and 2.064 and 3.112 and 14.7315 and -4.6346
same,Normalized Luminescence Counts,"hTA1 C96S; C96S, M = -6.522, single replicates (N=2)",-1.891 (2×) and 0.08646 and -2.698 (2×) and -0.7614
same,Normalized Luminescence Counts,"hTA1 C96S; C96S, M = -7, single replicates (N=2)",-0.5726 and 2.723 and -2.55 and 37.9707 and -8.508 and -4.6346
same,Normalized Luminescence Counts,"hTA1 C96S; C96S, M = -7.522, single replicates (N=2)",2.064 and 1.4045 and -1.232 and -2.698 and 12.7948 and -14.3176
same,Normalized Luminescence Counts,"hTA1 C96S; C96S, M = -8, single replicates (N=2)",-0.5726 and 0.08646 and -1.891 and 14.7315 (3×)
same,Normalized Luminescence Counts,"hTA1 C96S; C96S, M = -8.522, single replicates (N=2)",0.08646 and 2.064 and -1.232 and 22.4779 and 6.985 (2×)
same,Normalized Luminescence Counts,"hTA1 C96S; C96S, M = -9, single replicates (N=2)",-3.868 and 0.08646 and -3.209 and 10.8582 (3×)
same,Normalized Luminescence Counts,"hTA1 C96S; C96S, M = -9.522, single replicates (N=2)",-3.209 and 0.08646 and -5.186 and 1.175 and 3.112 (2×)
same,Normalized Luminescence Counts,"hTA1 C96S; C96S, M = -10, single replicates (N=2)",-3.209 and 0.08646 and -0.5726 and 28.2877 and 5.048 and 61.21
same,Normalized Luminescence Counts,"hTA1 C96S; C96S, M = -10.522, single replicates (N=2)",-2.55 and -0.5726 and -3.868 and -0.7614 (2×) and 1.175
same,Normalized Luminescence Counts,"hTA1 C96S; C96S, M = -11, single replicates (N=2)",0.7455 (2×) and 4.041 and 47.6538 and 53.4636 and 12.7948
same,Normalized Luminescence Counts,"hTA1 C96S; C96S, M = -11.522, single replicates (N=2)",2.064 and 4.7 and 0.08646 and 8.922
same,Normalized Luminescence Counts,"hTA1 C96S; M = -11.522, single replicates, mutant block above C178S",1.347 and 1.551 and 1.574 and 1.444 and 1.07 and 0.4821
same,Normalized Luminescence Counts,"hTA1 C96S; M = -12, single replicates, mutant block above C178S",2.211 and 3.099 and 1.62 and 0.7492 and 1.283 and 0.5889
same,Normalized Luminescence Counts,"hTA1 C96S; M = -12.522, single replicates, mutant block above C178S",0.07201 and 0.2541 and -0.1784 and 1.444 and 0.7492 and -0.5864
same,Span ± SEM (Emax normalized to β-PEA),"hTA1 C88/178S; C88/178S, n=2",98.55 ± 7.35
same,pEC50 ± SEM,"hTA1 C88/178S; C88/178S, n=2",8.59 ± 0.09
same,EC50,"hTA1 C88/178S; C88/178S, n=2, read-out: EC50",2.55 nM
same,"pEC50 values, Mean",hTA1 C88/178S; [1],8.403 and 8.782
same,"ΔEmax values (each mutant value - WT average), Mean",hTA1 C88/178S; [1],4.495 and 19.1933
same,"ΔpEC50 values (each mutant value - WT average), Mean",hTA1 C88/178S; [1],-0.428 and -0.04873
same,Normalized Luminescence Counts (N=2),"hTA1 C88/178S; C88S, C178S, M = -5",100.242 and 99.2245 and 97.2457 and 143.648 and 172.345 and 97.883
same,Normalized Luminescence Counts (N=2),"hTA1 C88/178S; C88S, C178S, M = -5.522",90.9136 and 85.0903 and 89.8394 and 123.862 and 148.33 and 92.2945
same,Normalized Luminescence Counts (N=2),"hTA1 C88/178S; C88S, C178S, M = -6",90.1221 and 88.8217 and 95.4931 and 103.622 and 111.174 and 99.9975
same,Normalized Luminescence Counts (N=2),"hTA1 C88/178S; C88S, C178S, M = -6.522",99.5072 and 94.7581 and 94.2493 and 122.049 and 117.367 and 101.508
same,Normalized Luminescence Counts (N=2),"hTA1 C88/178S; C88S, C178S, M = -7",91.3094 and 97.4719 and 93.062 and 116.159 and 110.872 and 102.263
same,Normalized Luminescence Counts (N=2),"hTA1 C88/178S; C88S, C178S, M = -7.522",83.1115 and 82.2069 and 77.6274 and 88.2165 and 117.82 and 93.3518
same,Normalized Luminescence Counts (N=2),"hTA1 C88/178S; C88S, C178S, M = -8",58.8572 and 57.8961 and 57.8396 and 93.8049 and 106.945 and 88.8206
same,Normalized Luminescence Counts (N=2),"hTA1 C88/178S; C88S, C178S, M = -8.522",53.4862 and 36.4686 and 47.8325 and 84.7426 and 92.7477 and 67.222
same,Normalized Luminescence Counts (N=2),"hTA1 C88/178S; C88S, C178S, M = -9",25.2178 and 28.61 and 25.7832 and 45.3213 and 51.816 and 46.9828
same,Normalized Luminescence Counts (N=2),"hTA1 C88/178S; C88S, C178S, M = -9.522",8.822 and 11.8186 and 9.84 and 21.1551 and 21.4571 and 31.5768
same,Normalized Luminescence Counts (N=2),"hTA1 C88/178S; C88S, C178S, M = -10",5.826 and 5.4299 (2×) and 35.5038 (2×) and 37.3163
same,Normalized Luminescence Counts (N=2),"hTA1 C88/178S; C88S, C178S, M = -10.522",1.755 and 2.038 and 3.395 and 3.6345 and 2.124 and 3.483
same,Normalized Luminescence Counts (N=2),"hTA1 C88/178S; C88S, C178S, M = -11",2.49 and 1.529 and 1.585 and 16.4728 and 32.9361 and 27.0456
same,Normalized Luminescence Counts (N=2),"hTA1 C88/178S; C88S, C178S, M = -11.522",0.5677 and 1.529 and 0.7373 and 0.9158 and 1.369 and 1.973
same,Normalized Luminescence Counts (N=2),"hTA1 C88/178S; C88S, C178S, M = -12",0.7939 and 1.472 and 1.1331 and 4.692 and 7.713 and 6.504
same,Normalized Luminescence Counts (N=2),"hTA1 C88/178S; C88S, C178S, M = -12.522",1.698 and 0.6243 and 0.7373 and -0.4436 and 0.7648 and -1.803
same,"Emax values, Mean","hTA1 C88/178S; C88S, C178S, normalized (β-PEA = 100), each row is one independent experiment, 3 replicates",91.1984 and 105.897
same,Span ± SEM (Emax normalized to β-PEA),"hTA1 I290N; I290N, n=2",83.69 ± 1.69
same,pEC50 ± SEM,"hTA1 I290N; I290N, n=2",8.33 ± 0.07
same,EC50,"hTA1 I290N; I290N, n=2, read-out: EC50",4.63 nM
same,"cAMP accumulation response, single replicate values (source data, Supplementary Figure 5)","hTA1 I290N; hTA1 I290N (N=2), log[Compound], M = -5",101.804 and 110.08 and 95.4137 and 103.531
same,"ΔpEC50 values (each mutant value - WT average), Mean",hTA1 I290N; hTA1 I290N mutant minus WT average,-0.535 and -0.459
same,"pEC50 values, Mean","hTA1 I290N; hTA1 I290N mutant, Figure 3B source data, each grid row a separate experiment, 3 replicates",8.296 and 8.372
same,"Emax values, Mean","hTA1 I290N; hTA1 I290N mutant, β-PEA set to 100, each grid row a separate experiment, 3 replicates",85.3822 and 81.9937
same,"pEC50 values, Mean","hTA1 F195T; F195T mutant, Figure 5B, each row one independent experiment (3 replicates)",8.682 and 8.281
same,"Emax values, Mean","hTA1 F195T; F195T mutant, Figure 5B, β-PEA = 100, each row one independent experiment (3 replicates)",106.681 and 96.1093
same,Span ± SEM (Emax normalized to β-PEA),"hTA1 F195T; F195T, n=2",101.40 ± 5.29
same,pEC50 ± SEM,"hTA1 F195T; F195T, n=2",7.68 ± 0.60
same,EC50,"hTA1 F195T; F195T, n=2, read-out: EC50",20.9 nM
same,"ΔpEC50 values (each mutant value - WT average), Mean","hTA1 T271A; T271A mutant minus WT average, Figure 5B",-0.5707 and -0.4899
same,"pEC50 values, Mean","hTA1 T271A; T271A mutant, Figure 5B, each row one independent experiment (3 replicates)",8.26 and 8.341
same,"Emax values, Mean","hTA1 T271A; T271A mutant, Figure 5B, β-PEA = 100, each row one independent experiment (3 replicates)",76.005 and 87.3949
same,Span ± SEM (Emax normalized to β-PEA),"hTA1 T271A; T271A, n=2",81.70 ± 5.69
same,pEC50 ± SEM,"hTA1 T271A; T271A, n=2",8.3 ± 0.07
same,EC50,"hTA1 T271A; T271A, n=2, read-out: EC50",5 nM

# — PMC10762035, “Molecular basis of human trace amine-associated receptor 1 activation” (Nature Communications, 2024)
